Consider 20 compounds from BindingDB's records for doi:10.1021/jm701199p (Eli Lilly, 2008).

For the assay, the target named is T1, TGF-beta receptor type-1 [4-503,T204D] (Homo sapiens, UniProt P36897, T204D).
T1 construct: 4-503
Description: Enzyme Assay and Luciferase Reporter Assay. The following applies: pH 7.5; 30 °C. A general note: In a reporter assay the amount or activity of a reporter protein is the signal.
Regarding `O=C(O)c1ccc(Oc2ccc3c(-c4c(-c5ccccn5)nn5c4CCC5)ccnc3c2)cc1` [4-({4-[2-(pyridin-2-yl)-4H,5H,6H-pyrrolo[1,2-a]pyrazol-3-yl]quinolin-7-yl}oxy)benzoic acid], the 50% effective concentration (EC50) (commonly the concentration needed to bring the measured effect to its halfway point) is > 20000 nM.

In the case of `CCSc1cc(-c2c(-c3ccccn3)nn3c2CCC3)c2ccccc2n1` [2-(ethylsulfanyl)-4-[2-(pyridin-2-yl)-4H,5H,6H-pyrrolo[1,2-a]pyrazol-3-yl]quinoline], the EC50 was > 20000 nM.

Compound `COC(=O)c1ccc2nccc(-c3c(-c4cccc(C)n4)nn4c3CCC4)c2c1` [methyl 4-[2-(6-methylpyridin-2-yl)-4H,5H,6H-pyrrolo[1,2-a]pyrazol-3-yl]quinoline-6-carboxylate] had an EC50 of 403 nM.

`c1ccc(-c2nn3c(c2-c2ccnc4cc(OCC5CCCO5)ccc24)CCC3)nc1` (stereo not given) [7-(oxolan-2-ylmethoxy)-4-[2-(pyridin-2-yl)-4H,5H,6H-pyrrolo[1,2-a]pyrazol-3-yl]quinoline] showed an EC50 of 80 nM.

`COc1cc(OC)c2nccc(-c3c(-c4cccc(C)n4)nn4c3CCC4)c2c1` [6,8-dimethoxy-4-[2-(6-methylpyridin-2-yl)-4H,5H,6H-pyrrolo[1,2-a]pyrazol-3-yl]quinoline]: the EC50 was 7200 nM.

Regarding `CN1CCN(CCOc2ccc3c(-c4c(-c5ccccn5)nn5c4CCC5)ccnc3c2)CC1` [7-[2-(4-methylpiperazin-1-yl)ethoxy]-4-[2-(pyridin-2-yl)-4H,5H,6H-pyrrolo[1,2-a]pyrazol-3-yl]quinoline], the EC50 was determined as 38 nM.

In turn, `CN1CCCC1CCCOc1ccc2c(-c3c(-c4ccccn4)nn4c3CCC4)ccnc2c1` (stereo not given) [7-[3-(1-methylpyrrolidin-2-yl)propoxy]-4-[2-(pyridin-2-yl)-4H,5H,6H-pyrrolo[1,2-a]pyrazol-3-yl]quinoline] returned an EC50 of 17 nM.

On to `CN(C)CCCCCOc1ccc2c(-c3c(-c4ccccn4)nn4c3CCC4)ccnc2c1` [dimethyl[5-({4-[2-(pyridin-2-yl)-4H,5H,6H-pyrrolo[1,2-a]pyrazol-3-yl]quinolin-7-yl}oxy)pentyl]amine], for which the EC50 was 24 nM.

The compound `CN(C)C(=O)c1ccc(Oc2ccc3c(-c4c(-c5ccccn5)nn5c4CCC5)ccnc3c2)cc1` [N,N-dimethyl-4-({4-[2-(pyridin-2-yl)-4H,5H,6H-pyrrolo[1,2-a]pyrazol-3-yl]quinolin-7-yl}oxy)benzamide] displayed an EC50 of 15000 nM.

The compound `Cc1cccc(-c2nn3c(c2-c2ccnc4ccc(C(=O)NCCN(C)C)cc24)CCC3)n1` [N-[2-(dimethylamino)ethyl]-4-[2-(6-methylpyridin-2-yl)-4H,5H,6H-pyrrolo[1,2-a]pyrazol-3-yl]quinoline-6-carboxamide] yielded an EC50 of 468 nM.

`Cc1cccc(-c2nn3c(c2-c2ccnc4ccc(Br)cc24)CCC3)n1` [6-bromo-4-[2-(6-methylpyridin-2-yl)-4H,5H,6H-pyrrolo[1,2-a]pyrazol-3-yl]quinoline] came in with an EC50 of 55 nM.

The compound `ClCCOc1ccc2c(-c3c(-c4ccccn4)nn4c3CCC4)ccnc2c1` [7-(2-chloroethoxy)-4-[2-(pyridin-2-yl)-4H,5H,6H-pyrrolo[1,2-a]pyrazol-3-yl]quinoline] had an EC50 of 66 nM.

Turning to `Clc1cc(-c2c(-c3ccccn3)nn3c2CCC3)c2ccccc2n1` [2-chloro-4-[2-(pyridin-2-yl)-4H,5H,6H-pyrrolo[1,2-a]pyrazol-3-yl]quinoline], the EC50 is > 20000 nM.

In turn, `CN1CCN(C(=O)COc2ccc3c(-c4c(-c5ccccn5)nn5c4CCC5)ccnc3c2)CC1` [1-(4-methylpiperazin-1-yl)-2-({4-[2-(pyridin-2-yl)-4H,5H,6H-pyrrolo[1,2-a]pyrazol-3-yl]quinolin-7-yl}oxy)ethan-1-one] gave an EC50 of 260 nM.

For `CCN(C)CCOc1ccc2c(-c3c(-c4ccccn4)nn4c3CCC4)ccnc2c1` [ethyl(methyl)[2-({4-[2-(pyridin-2-yl)-4H,5H,6H-pyrrolo[1,2-a]pyrazol-3-yl]quinolin-7-yl}oxy)ethyl]amine], the midpoint of the response, the EC50, lay at 61 nM.

Consider `Oc1ccc2c(-c3c(-c4ccccn4)nn4c3CCC4)ccnc2c1` [4-[2-(pyridin-2-yl)-4H,5H,6H-pyrrolo[1,2-a]pyrazol-3-yl]quinolin-7-ol], for which it took 200 nM to reach a half-maximal effect (EC50).

`Cc1cccc(-c2nn3c(c2-c2ccnc4c(F)cccc24)CCC3)n1` [8-fluoro-4-[2-(6-methylpyridin-2-yl)-4H,5H,6H-pyrrolo[1,2-a]pyrazol-3-yl]quinoline] displayed an EC50 of 951 nM.

Take `c1ccc(-c2nn3c(c2-c2cc(N4CCCC4)nc4ccccc24)CCC3)nc1` [4-[2-(pyridin-2-yl)-4H,5H,6H-pyrrolo[1,2-a]pyrazol-3-yl]-2-(pyrrolidin-1-yl)quinoline]: the EC50 is > 20000 nM.

The compound `CN1CCN(CCCOc2ccc3c(-c4c(-c5ccccn5)nn5c4CCC5)ccnc3c2)CC1` [7-[3-(4-methylpiperazin-1-yl)propoxy]-4-[2-(pyridin-2-yl)-4H,5H,6H-pyrrolo[1,2-a]pyrazol-3-yl]quinoline] gave an EC50 of 44 nM.

Compound `Cc1cccc(-c2nn3c(c2-c2ccnc4ccc(OC(F)(F)F)cc24)CCC3)n1` [4-[2-(6-methylpyridin-2-yl)-4H,5H,6H-pyrrolo[1,2-a]pyrazol-3-yl]-6-(trifluoromethoxy)quinoline] had an EC50 of 201 nM.
